Data from US8796256B2 (Janssen Pharmaceutica NV, priority 2010, dated 2014).

Target: T1, ERR1 (also known as ERR-α or ERR-1) (Homo sapiens, UniProt P11474)
T1 sequence (P11474 193-421 limits assumed): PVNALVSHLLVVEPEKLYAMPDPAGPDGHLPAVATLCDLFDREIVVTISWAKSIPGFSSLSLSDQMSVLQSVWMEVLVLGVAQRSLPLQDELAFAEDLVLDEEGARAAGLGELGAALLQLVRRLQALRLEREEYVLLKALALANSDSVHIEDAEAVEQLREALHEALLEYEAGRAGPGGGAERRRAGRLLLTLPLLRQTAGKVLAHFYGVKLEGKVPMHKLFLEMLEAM
Assay: TR-FRET assay (disruption of co-activator peptide binding to ERR1 LBD)
Assay type: biochemical
Conditions: 6 nM 6His-ERR1LBD, 6 nM GST-SRC-2 peptide; average of 3 independent experiments
Procedure: Time-Resolved Fluorescence Resonance Energy Transfer (TR-FRET) experiments were performed to examine the functional response of ERR1 (also known as ERR-α or ERR-1) ligands. The TR-FRET assay described herein relied on the conformation of ERR1 for binding to a co-activator peptide: when a test compound binds to ERR1 and alters its conformation, it can disrupt the binding of the co-activator peptide. The components of this homogeneous secondary assay included: the ^6His-tagged-ERR1LBD, a GST-labeled-hSRC2 co-activator polypeptide and a fluorescent donor/acceptor pair from CIS bio international htrf/bioassays (Bedford, Mass.) using both an α-GST Europium (Eu) Cryptate label and an α^6His-XL665 (allophycocyanin) fluorophore.
For TR-FRET measurements, the reaction was buffered in 25 mM Tris pH 8, 2.5 mM Hepes, 20 mM KCl, 1 mM DTT, and 0.05 mg/mL BSA (delipidated). The final concentrations of reagents were 6 nM of ERR1LBD, 6 nM GST-SRC-2 peptide, 30 nM Eu cryptate, and 7.5 nM a^6His-XL665. Reactions were allowed to reach equilibrium at 25° C. for 4-18 h before collecting data on the Analyst from LJL Biosystems (Molecular Devices Sunnyvale, Calif.). […] Dose response curves were fitted using a hyperbolic equation and the data reported is the average of 3 independent experiments.

SMILES	EC50
O=C1S/C(=C\c2ccc3c(cnn3Cc3ccc(Cl)cc3C(F)(F)F)c2)C(=O)N1[C@@H]1CNCC[C@@H]1F (relative stereo) [Compound 199, (5Z)-5-({1-[4-Chloro-2-(trifluoromethyl)benzyl]-1H-indazol-5-yl}methylidene)-3-(cis-4-fluoropiperidin-3-yl)-1,3-thiazolidine-2,4-dione]	15 nM
O=C1S/C(=C\c2ccc3c(cnn3Cc3ccc(C(F)(F)F)cc3C(F)(F)F)c2)C(=O)N1[C@@H]1CNCC[C@@H]1F (relative stereo) [Compound 200, (5Z)-5-({1-[2,4-Bis(trifluoromethyl)benzyl]-1H-indazol-5-yl}methylidene)-3-(cis-4-fluoropiperidin-3-yl)-1,3-thiazolidine-2,4-dione]	14 nM
O=C1S/C(=C\c2ccc3c(cnn3Cc3ccc(Cl)cc3C(F)(F)F)c2)C(=O)N1[C@H]1CCNC[C@H]1F (relative stereo) [Compound 201, (5Z)-5-({1-[4-Chloro-2-(trifluoromethyl)benzyl]-1H-indazol-5-yl}methylidene)-3-(cis-3-fluoropiperidin-4-yl)-1,3-thiazolidine-2,4-dione]	61 nM
O=C1S/C(=C\c2ccc3c(cnn3Cc3ccc(Cl)cc3C(F)(F)F)c2)C(=O)N1[C@@H]1CCN[C@@H](CO)C1 (relative stereo) [Compound 269, (5Z)-5-({1-[4-Chloro-2-(trifluoromethyl)benzyl]-1H-indazol-5-yl}methylidene)-3-[trans-2-(hydroxymethyl)piperidin-4-yl]-1,3-thiazolidine-2,4-dione]	67 nM
O=C1S/C(=C\c2ccc3c(cnn3Cc3ccc(Cl)cc3C(F)(F)F)c2)C(=O)N1[C@@H]1CCNC[C@H]1O (relative stereo) [Compound 270, (5Z)-5-({1-[4-Chloro-2-(trifluoromethyl)-benzyl]-1H-indazol-5-yl}methylidene)-3-[trans-3-hydroxypiperidin-4-yl]-1,3-thiazolidine-2,4-dione]	25 nM
O=C1S/C(=C\c2ccc3c(cnn3Cc3ccc(C(F)(F)F)cc3C(F)(F)F)c2)C(=O)N1[C@@H]1CCNC[C@H]1O (relative stereo) [Compound 271, (5Z)-5-({1-[2,4-Bis(trifluoromethyl)benzyl]-1H-indazol-5-yl}methylidene)-3-[trans-3-hydroxypiperidin-4-yl]-1,3-thiazolidine-2,4-dione]	38 nM
O=C1S/C(=C\c2ccc3c(cnn3Cc3ccc(F)cc3C(F)(F)F)c2)C(=O)N1[C@@H]1CCNC[C@H]1O (relative stereo) [Compound 272, (5Z)-5-({1-[4-Fluoro-2-(trifluoromethyl)-benzyl]-1H-indazol-5-yl}methylidene)-3-[trans-3-hydroxypiperidin-4-yl]-1,3-thiazolidine-2,4-dione]	153 nM
O=C1S/C(=C\c2ccc3c(cnn3Cc3ccc(Cl)cc3C(F)(F)F)c2)C(=O)N1[C@@H]1CCNC[C@H]1F (relative stereo) [Compound 273, (5Z)-5-({1-[4-Chloro-2-(trifluoromethyl)benzyl]-1H-indazol-5-yl}methylidene)-3-(trans-3-fluoropiperidin-4-yl)-1,3-thiazolidine-2,4-dione]	34 nM
O=C1S/C(=C\c2ccc3c(cnn3Cc3ccc(C(F)(F)F)cc3C(F)(F)F)c2)C(=O)N1[C@@H]1CCNC[C@H]1F (relative stereo) [Compound 274, (5Z)-5-({1-[2,4-Bis(trifluoromethyl)benzyl]-1H-indazol-5-yl}methylidene)-3-(trans-3-fluoropiperidin-4-yl)-1,3-thiazolidine-2,4-dione]	88 nM
CN1CC[C@@H](N2C(=O)S/C(=C\c3ccc4c(cnn4Cc4ccc(Cl)cc4C(F)(F)F)c3)C2=O)[C@H](O)C1 (relative stereo) [Compound 275, (5Z)-5-({1-[4-Chloro-2-(trifluoromethyl)-benzyl]-1H-indazol-5-yl}methylidene)-3-[trans-3-hydroxy-1-methylpiperidin-4-yl]-1,3-thiazolidine-2,4-dione]	23 nM
CN1CC[C@@H](N2C(=O)S/C(=C\c3ccc4c(cnn4Cc4ccc(C(F)(F)F)cc4C(F)(F)F)c3)C2=O)[C@H](O)C1 (relative stereo) [Compound 276, (5Z)-5-({1-[2,4-Bis(trifluoromethyl)benzyl]-1H-indazol-5-yl}methylidene)-3-[trans-3-hydroxy-l-methylpiperidin-4-yl]-1,3-thiazolidine-2,4-dione]	29 nM
CN1CC[C@@H](N2C(=O)S/C(=C\c3ccc4c(cnn4Cc4ccc(C(F)(F)F)cc4C(F)(F)F)c3)C2=O)[C@H](F)C1 (relative stereo) [Compound 278, (5Z)-5-({1-[2,4-Bis(trifluoromethyl)benzyl]-1H-indazol-5-yl}methylidene)-3-(trans-3-fluoro-1-methylpiperidin-4-yl)-1,3-thiazolidine-2,4-dione]	71 nM
O=C1S/C(=C\c2ccc3c(cnn3Cc3ccc(Cl)cc3C(F)(F)F)c2)C(=O)N1[C@@H]1CNCC[C@H]1O (relative stereo) [Compound 279, (5Z)-5-({1-[4-Chloro-2-(trifluoromethyl)-benzyl]-1H-indazol-5-yl}methylidene)-3-[trans-4-hydroxypiperidin-3-yl]-1,3-thiazolidine-2,4-dione]	22 nM
O=C1S/C(=C\c2ccc3c(cnn3Cc3ccc(C(F)(F)F)cc3C(F)(F)F)c2)C(=O)N1[C@@H]1CNCC[C@H]1O (relative stereo) [Compound 280, (5Z)-5-({1-[2,4-Bis(trifluoromethyl)benzyl]-1H-indazol-5-yl}methylidene)-3-[trans-4-hydroxypiperidin-3-yl]-1,3-thiazolidine-2,4-dione]	34 nM
O=C1S/C(=C\c2ccc3c(cnn3Cc3ccc(F)cc3C(F)(F)F)c2)C(=O)N1[C@@H]1CNCC[C@H]1O (relative stereo) [Compound 281, (5Z)-5-({1-[4-Fluoro-2-(trifluoromethyl)-benzyl]-1H-indazol-5-yl}methylidene)-3-[trans-4-hydroxypiperidin-3-yl]-1,3-thiazolidine-2,4-dione]	170 nM
O=C1S/C(=C\c2ccc3c(cnn3Cc3ccc(Cl)cc3C(F)(F)F)c2)C(=O)N1[C@@H]1CNC[C@H]1O (relative stereo) [Compound 316, (5Z)-5-({1-[4-Chloro-2-(trifluoromethyl)benzyl]-1H-indazol-5-yl}methylidene)-3-[trans-4-hydroxypyrrolidin-3-yl]-1,3-thiazolidine-2,4-dione]	36 nM
O=C1S/C(=C\c2ccc3c(cnn3Cc3ccc(Cl)cc3C(F)(F)F)c2)C(=O)N1[C@@H]1CNC[C@H]1F (relative stereo) [Compound 317, (5Z)-5-({1-[4-Chloro-2-(trifluoromethyl)benzyl]-1H-indazol-5-yl}methylidene)-3-[trans-4-fluoropyrrolidin-3-yl]-1,3-thiazolidine-2,4-dione]	12 nM
CN1C[C@@H](O)[C@H](N2C(=O)S/C(=C\c3ccc4c(cnn4Cc4ccc(Cl)cc4C(F)(F)F)c3)C2=O)C1 (relative stereo) [Compound 318]	24 nM
CN1C[C@@H](F)[C@H](N2C(=O)S/C(=C\c3ccc4c(cnn4Cc4ccc(Cl)cc4C(F)(F)F)c3)C2=O)C1 (relative stereo) [Compound 319, (5Z)-5-({1-[4-Chloro-2-(trifluoromethyl)benzyl]-1H-indazol-5-yl}methylidene)-3-[trans-4-fluoro-1-methylpyrrolidin-3-yl]-1,3-thiazolidine-2,4-dione]	21 nM
CCN1C[C@@H](F)[C@H](N2C(=O)S/C(=C\c3ccc4c(cnn4Cc4ccc(Cl)cc4C(F)(F)F)c3)C2=O)C1 (relative stereo) [Compound 320, (5Z)-5-({1-[4-Chloro-2-(trifluoromethyl)benzyl]-1H-indazol-5-yl}methylidene)-3-[trans-1-ethyl-4-fluoropyrrolidin-3-yl]-1,3-thiazolidine-2,4-dione]	31 nM
CC(C)N1C[C@@H](F)[C@H](N2C(=O)S/C(=C\c3ccc4c(cnn4Cc4ccc(Cl)cc4C(F)(F)F)c3)C2=O)C1 (relative stereo) [Compound 321, (5Z)-5-({1-[4-Chloro-2-(trifluoromethyl)benzyl]-1H-indazol-5-yl}methylidene)-3-[trans-4-fluoro-1-(1-methylethyl)pyrrolidin-3-yl]-1,3-thiazolidine-2,4-dione]	43 nM
O=C1S/C(=C\c2ccc3c(cnn3Cc3ccc(Cl)cc3C(F)(F)F)c2)C(=O)N1[C@@H]1CNC[C@@H]1F (relative stereo) [Compound 322, (5Z)-5-({1-[4-Chloro-2-(trifluoromethyl)benzyl]-1H-indazol-5-yl}methylidene)-3-[cis-4-fluoropyrrolidin-3-yl]-1,3-thiazolidine-2,4-dione]	60 nM
